What was measured:
BrlR R67A DNA binding = target: T1, BrlR R67A DNA binding (Pseudomonas aeruginosa, UniProt Q9HUT5, R67A); test: EMSA, BrlR R67A; format: biochemical
T1 construct: His6-SUMO (N, cleaved yes); made in house; host or cells: E. coli BL21 DE3
Protocol: A 6-carboxy-fluorescein (FAM)-labeled 36-bp brlR promoter DNA (PbrlR) or 80-bp mexA/mexE promoter DNA (PmexA/PmexE) probes (~0.375 pmol), BrlR protein and varying amounts of inducers were incubated in binding buffer (10 mM Tris HCl [pH 7.4], 50 mM KCl, 1 mM DTT, […] and 5 ng/mL poly [dI-dC]) for 60 min at 25 °C. Finally, glycerol was added to a concentration of 6.5%. The samples were subjected to a 5% polyacrylamide gel electrophoresis and run in 0.5 × Tris-borate-EDTA buffer at 80 V for 1 h at room temperature. Imaging and data analyses were performed using a Typhoon Scanner (GE Healthcare) and Imagequant software. The probes used are listed in Supplementary Table 1.

BrlR mutant Y40A = target: T2, BrlR mutant Y40A (Pseudomonas aeruginosa, UniProt Q9HUT5, Y40A); test: FP binding assay, BrlR Y40A
T2 construct: His6-SUMO (N, cleaved yes); made in house; host or cells: E. coli BL21 DE3
Protocol: F-c-di-GMP and F-c-di-AMP both contain a fluorophore at one of the 2′-ribose hydroxyls of c-di-GMP and c-di-AMP, respectively (Fig. 2f). To measure the binding of c-di-GMP and c-di-AMP to BrlR variants, 1 nM F-c-di-GMP or F-c-di-AMP was incubated with increasing amounts of indicated BrlR WT, BrlR mutation, or BrlR-C in reaction buffer (25 mM HEPES, 100 mM NaCl, pH 7.5) at 25 °C for 20 min. 1 nM fluorescein was incubated with BrlR WT in the same reaction buffer at 25 °C. FP measurements were conducted on a Synergy 4 Microplate Reader (BioTek) at 25 °C. All experiments were performed in triplicate. The curves were fitted to deduce binding affinities by GraphPad Prism 5.
BrlR–c-di-GMPs interactions in two separate c-di-GMP binding sites
In the first binding site, c-di-GMP is half accommodated by the antiparallel β-sheet and two residues (M1 and D35). In detail, the backbone amide protons of the first M1 residue form a hydrogen bond (H-bond) with the phosphate oxygen atom of c-di-GMP, and the side chain of R31 forms two H-bonds with the Gua1 base. The residue D35 also forms an H-bond with the Gua1 base. The aromatic ring of Y40 interacts with the Gua1 base through a hydrophobic π-π interaction. In addition, the hydroxyl group of the Y270 side chain from another subunit interacts with the phosphate 2 of c-di-GMP via an H-bond (Fig. 2d). […]

T2 sequence (Q9HUT5 whole entry Y40A): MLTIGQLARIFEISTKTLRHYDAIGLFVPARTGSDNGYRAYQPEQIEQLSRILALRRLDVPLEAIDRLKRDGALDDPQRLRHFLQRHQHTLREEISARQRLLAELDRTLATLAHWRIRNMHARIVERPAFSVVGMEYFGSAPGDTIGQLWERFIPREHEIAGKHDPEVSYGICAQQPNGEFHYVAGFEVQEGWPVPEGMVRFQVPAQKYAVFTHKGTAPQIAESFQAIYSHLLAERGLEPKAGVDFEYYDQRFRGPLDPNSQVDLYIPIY
T1 sequence (Q9HUT5 whole entry R67A): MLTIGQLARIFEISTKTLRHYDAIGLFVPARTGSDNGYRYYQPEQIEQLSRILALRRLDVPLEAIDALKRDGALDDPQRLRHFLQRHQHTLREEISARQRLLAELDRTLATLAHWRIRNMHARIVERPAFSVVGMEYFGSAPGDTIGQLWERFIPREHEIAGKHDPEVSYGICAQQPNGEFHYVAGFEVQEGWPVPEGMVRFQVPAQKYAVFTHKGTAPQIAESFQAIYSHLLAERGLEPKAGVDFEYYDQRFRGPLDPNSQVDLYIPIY

Nc1nc2c(ncn2[C@@H]2O[C@@H]3COP(=O)(O)O[C@H]4[C@@H](O)[C@H](n5cnc6c(=O)[nH]c(N)nc65)O[C@@H]4COP(=O)(O)O[C@H]3[C@H]2O)c(=O)[nH]1 [c-di-GMP, cyclic diguanylate monophosphate]
DNA bound in the presence vs absence of c-di-GMP (BrlR R67A DNA binding): ~ 5.2 fold
Kd (BrlR mutant Y40A): 34.2 ± 2.6 µM

Reference: PMC6028453, “BrlR from Pseudomonas aeruginosa is a receptor for both cyclic di-GMP and pyocyanin” (Nature Communications, 2018)
